Laboratory results published in patent US10793568B2, “Hormone receptor modulators for treating metabolic conditions and disorders” (ARDELYX, INC., priority 2016, dated 2020).

Assays:
[1] = molecular target: human Farnesoid X receptor ligand-binding domain/Gal4 DNA binding domain chimera (Homo sapiens (Human), UniProt Q96RI1); assay: Cell-based assay of FXR activation (FXR-UAS-bla HEK 293T beta-lactamase reporter); settings: cellular FXR beta-lactamase reporter assay; for Emax: HEK-293T, read-out: % Efficacy; for Emax / % Efficacy: extent of activation relative to GW4064; for EC50 / pEC50: FXR-UAS-bla HEK 293T cells, 16 h, pEC50 = -log EC50
Summary of the method: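 HEK 293T cells stably expressing a Gal4-fused human FXR LBD and a UAS-driven beta-lactamase reporter were incubated with serially diluted compounds for 16 h at 37 °C in phenol red-free DMEM with 2% charcoal-stripped FBS. CCF4 FRET read-out: excitation 409 nm, emission 447 nm. pEC50 comes from a 3-parameter logistic fit, and efficacy is given as % of GW4064.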

[2] = molecular target: ligand binding domain of human FXR (Homo sapiens (Human), UniProt Q96RI1); assay: FXR ligand binding assay (LanthaScreen TR-FRET, SRC2-2 peptide recruitment); settings: for pEC50: -log EC50, concentration required to produce 50% activation; for Emax / % Efficacy: extent of activation relative to GW4064; for Emax: read-out: % Efficacy
Chain of ligand binding domain of human FXR (Q96RI1 262-486): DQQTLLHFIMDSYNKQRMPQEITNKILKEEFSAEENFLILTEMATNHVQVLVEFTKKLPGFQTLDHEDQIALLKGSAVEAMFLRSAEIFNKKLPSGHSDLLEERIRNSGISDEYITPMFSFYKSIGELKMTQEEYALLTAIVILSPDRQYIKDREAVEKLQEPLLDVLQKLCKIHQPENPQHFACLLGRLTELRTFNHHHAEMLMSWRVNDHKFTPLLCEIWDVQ

Chain of human Farnesoid X receptor ligand-binding domain/Gal4 DNA binding domain chimera (Q96RI1 262-486, change not shown): as the sequence (Q96RI1 262-486) above
Chain of human Farnesoid X receptor ligand-binding domain/Gal4 DNA binding domain chimera (P04386 1-147 partner): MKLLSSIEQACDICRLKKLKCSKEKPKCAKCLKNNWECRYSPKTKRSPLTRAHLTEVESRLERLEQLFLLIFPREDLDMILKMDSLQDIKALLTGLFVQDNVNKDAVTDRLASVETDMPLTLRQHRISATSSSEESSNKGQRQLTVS

Row | SMILES | Emax [1] | EC50 [1] | pEC50 [2] | Emax [2] | pEC50 [1] | % Efficacy [1] | % Efficacy [2]
1 | O=C(O)c1cc(C2CCC2)c2nc(N3C[C@@H]4C[C@H]3C[C@H]4OCc3c(-c4c(Cl)cccc4Cl)noc3C3CC3)sc2c1 [Compound I-249, 4-cyclobutyl-2-[(1S,4S,5R)-5-{[5-cyclopropyl-3-(2,6-dichlorophenyl)-1,2-oxazol-4-yl]methoxy}-2-azabicyclo[2.2.1]heptan-2-yl]-1,3-benzothiazole-6-carboxylic Acid] | 114% | 158 pM | 8.4 | 134% | – | – | –
2 | O=C(O)c1cc(C2CCCC2)c2nc(N3C[C@@H]4C[C@H]3C[C@H]4OCc3c(-c4c(Cl)cccc4Cl)noc3C3CC3)sc2c1 [Compound I-250, 4-cyclopentyl-2-[(1S,4S,5R)-5-{[5-cyclopropyl-3-(2,6-dichlorophenyl)-1,2-oxazol-4-yl]methoxy}-2-azabicyclo[2.2.1]heptan-2-yl]-1,3-benzothiazole-6-carboxylic Acid] | 114% | 501 pM | 7.8 | 128% | – | – | –
3 | O=C(O)c1cc(C2CCOC2)c2nc(N3C[C@@H]4C[C@H]3C[C@H]4OCc3c(-c4c(Cl)cccc4Cl)noc3C3CC3)sc2c1 (stereo partly drawn) [Compound I-251, 2-[(1S,4S,5R)-5-{[5-cyclopropyl-3-(2,6-dichlorophenyl)-1,2-oxazol-4-yl]methoxy}-2-azabicyclo[2.2.1]heptan-2-yl]-4-(oxolan-3-yl)-1,3-benzothiazole-6-carboxylic Acid] | 110% | 200 pM | 9.1 | 133% | – | – | –
4 | O=C(O)c1cc([C@@H]2CCOC2)c2nc(N3C[C@@H]4C[C@H]3C[C@H]4OCc3c(-c4c(Cl)cccc4Cl)noc3C3CC3)sc2c1 [Compound I-252, 2-[(1S,4S,5R)-5-{[5-cyclopropyl-3-(2,6-dichlorophenyl)-1,2-oxazol-4-yl]methoxy}-2-azabicyclo[2.2.1]heptan-2-yl]-4-[(3S)-oxolan-3-yl]-1,3-benzothiazole-6-carboxylic Acid] | 107% | 200 pM | 8.6 | 135% | – | – | –
5 | O=C(O)c1cc([C@H]2CCOC2)c2nc(N3C[C@@H]4C[C@H]3C[C@H]4OCc3c(-c4c(Cl)cccc4Cl)noc3C3CC3)sc2c1 [Compound I-253, 2-[(1S,4S,5R)-5-{[5-cyclopropyl-3-(2,6-dichlorophenyl)-1,2-oxazol-4-yl]methoxy}-2-azabicyclo[2.2.1]heptan-2-yl]-4-[(3R)-oxolan-3-yl]-1,3-benzothiazole-6-carboxylic Acid] | 107% | 158 pM | 8.6 | 140% | – | – | –
6 | O=C(O)c1cc(C2CCOCC2)c2nc(N3C[C@@H]4C[C@H]3C[C@H]4OCc3c(-c4c(Cl)cccc4Cl)noc3C3CC3)sc2c1 [Compound I-254, 2-[(1S,4S,5R)-5-{[5-cyclopropyl-3-(2,6-dichlorophenyl)-1,2-oxazol-4-yl]methoxy}-2-azabicyclo[2.2.1]heptan-2-yl]-4-(oxan-4-yl)-1,3-benzothiazole-6-carboxylic Acid] | 106% | 316 pM | 9 | 143% | – | – | –
7 | O=C(O)c1cc([C@H]2C[C@H]3CC[C@@H](C2)O3)c2nc(N3C[C@@H]4C[C@H]3C[C@H]4OCc3c(-c4c(Cl)cccc4Cl)noc3C3CC3)sc2c1 [Compound I-255, 2-[(1S,4S,5R)-5-{[5-cyclopropyl-3-(2,6-dichlorophenyl)-1,2-oxazol-4-yl]methoxy}-2-azabicyclo[2.2.1]heptan-2-yl]-4-[(1R,3R,5S)-8-oxabicyclo[3.2.1]octan-3-yl]-1,3-benzothiazole-6-carboxylic Acid] | – | – | 8.4 | – | 9.3 | 104% | 150%
8 | O=C(O)c1cc([C@@H]2C[C@H]3CC[C@@H](C2)O3)c2nc(N3C[C@@H]4C[C@H]3C[C@H]4OCc3c(-c4c(Cl)cccc4Cl)noc3C3CC3)sc2c1 [Compound I-256, 2-[(1S,4S,5R)-5-{[5-cyclopropyl-3-(2,6-dichlorophenyl)-1,2-oxazol-4-yl]methoxy}-2-azabicyclo[2.2.1]heptan-2-yl]-4-[(1R,3S,5S)-8-oxabicyclo[3.2.1]octan-3-yl]-1,3-benzothiazole-6-carboxylic Acid] | – | – | 8.4 | – | 9.7 | 107% | 157%
9 | O=C(O)c1cc(C2CC3(CCOCC3)C2)c2nc(N3C[C@@H]4C[C@H]3C[C@H]4OCc3c(-c4c(Cl)cccc4Cl)noc3C3CC3)sc2c1 [Compound I-257, 2-[(1S,4S,5R)-5-{[5-cyclopropyl-3-(2,6-dichlorophenyl)-1,2-oxazol-4-yl]methoxy}-2-azabicyclo[2.2.1]heptan-2-yl]-4-{7-oxaspiro[3.5]nonan-2-yl}-1,3-benzothiazole-6-carboxylic Acid] | 108% | 100 pM | 8.6 | 148% | – | – | –
10 | O=C(O)c1cc(C2CCCOCC2)c2nc(N3C[C@@H]4C[C@H]3C[C@H]4OCc3c(-c4c(Cl)cccc4Cl)noc3C3CC3)sc2c1 (stereo partly drawn) [Compound I-258, 2-[(1S,4S,5R)-5-{[5-cyclopropyl-3-(2,6-dichlorophenyl)-1,2-oxazol-4-yl]methoxy}-2-azabicyclo[2.2.1]heptan-2-yl]-4-(oxepan-4-yl)-1,3-benzothiazole-6-carboxylic Acid] | 106% | 126 pM | 8.6 | 146% | – | – | –
11 | O=C(O)c1cc(OC2CC2)c2nc(N3C[C@@H]4C[C@H]3C[C@H]4OCc3c(-c4c(Cl)cccc4Cl)noc3C3CC3)sc2c1 [Compound I-259, 4-cyclopropoxy-2-[(1S,4S,5R)-5-{[5-cyclopropyl-3-(2,6-dichlorophenyl)-1,2-oxazol-4-yl]methoxy}-2-azabicyclo[2.2.1]heptan-2-yl]-1,3-benzothiazole-6-carboxylic Acid] | 114% | 100 pM | 8.5 | 124% | – | – | –
12 | O=C(O)c1cc(O[C@H]2CCOC2)c2nc(N3C[C@@H]4C[C@H]3C[C@H]4OCc3c(-c4c(Cl)cccc4Cl)noc3C3CC3)sc2c1 [Compound I-260, 2-[(1S,4S,5R)-5-{[5-cyclopropyl-3-(2,6-dichlorophenyl)-1,2-oxazol-4-yl]methoxy}-2-azabicyclo[2.2.1]heptan-2-yl]-4-[(3S)-oxolan-3-yloxy]-1,3-benzothiazole-6-carboxylic Acid] | 103% | 398 pM | 8.8 | 148% | – | – | –
13 | O=C(O)c1cc(O[C@@H]2CCOC2)c2nc(N3C[C@@H]4C[C@H]3C[C@H]4OCc3c(-c4c(Cl)cccc4Cl)noc3C3CC3)sc2c1 [Compound I-261, 2-[(1S,4S,5R)-5-{[5-cyclopropyl-3-(2,6-dichlorophenyl)-1,2-oxazol-4-yl]methoxy}-2-azabicyclo[2.2.1]heptan-2-yl]-4-[(3R)-oxolan-3-yloxy]-1,3-benzothiazole-6-carboxylic Acid] | 110% | 398 pM | 8.6 | 161% | – | – | –
14 | Cc1cc(C(=O)O)cc2sc(N3C[C@@H]4C[C@H]3C[C@H]4OCc3c(-c4c(F)cccc4Cl)noc3C3CC3)nc12 [Compound I-262, 2-[(1S,4S,5R)-5-{[3-(2-chloro-6-fluorophenyl)-5-cyclopropyl-1,2-oxazol-4-yl]methoxy}-2-azabicyclo[2.2.1]heptan-2-yl]-4-methyl-1,3-benzothiazole-6-carboxylic Acid] | 114% | 2000 pM | 8.6 | 144% | – | – | –
